Common to all, as to format: in vivo
One assay deals with Serum IgG and IgM. Description: Serum IgG and IgM by turbidimetric inhibition immuno assay. The settings on record: pig serum; diet + 0.3 mg/kg Na2SeO3 or 0.14 mg/kg nanostructure; mean±SD.
The subject of another assay is weaned pigs. Briefly: Pig growth measurement (body weight, feed intake, feed/gain) in weaned pigs. As to conditions: mean±SD.
The test system of assay [1] is Serum inflammatory cytokine TNF-α, IL-2 and IL-6. Description: Serum inflammatory cytokines (TNF-α, IL-2, IL-6) by ELISA. The settings on record: pig serum; diet + 0.3 mg/kg Na2SeO3 or 0.14 mg/kg nanostructure; mean±SD. Background: In an ELISA, binding on a coated surface is turned into a signal by an enzyme label.
Assay [2] has as its system pig antioxidative function. Briefly: Serum antioxidative function measurement (T-AOC, GPx, SOD, MDA) with kits. The settings on record: diet + 0.3 mg/kg Na2SeO3 or 0.14 mg/kg nanostructure, mean±SD.
Where [3] appears, read: day 28 to 67, diet + 0.3 mg/kg Na2SeO3 or 0.14 mg/kg nanostructure.

Marks after values point to notes of the source that are not given here.

The text below walks through data of US10087466B2 (priority 2016, dated 2018).

In the case of `O=[Se](O)O` [sodium selenite], in the assay on Serum IgG and IgM, the IgG is reported as 2.66 ± 0.23^ab g/L and the IgM is reported as 0.71 ± 0.07^a g/L. Besides, the Final weight in the assay with weaned pigs (67-day-old, basic diet + 0.3 mg/kg Na2SeO3 (group 1) or 0.14 mg/kg biogenic elemental selenium nanostructure (group 2)) is given as 24.17 ± 0.76^a kg. Further, in the assay on weaned pigs (setting [3]), the “Average daily feed intake” value is on record as 654.17 ± 37.64 g, the Average daily gain is given as 411.54 ± 20.63^a g and the Feed/gain ratio is given as 1.59 ± 0.01^b. Moreover, in assay [1], the IL-2 is on record as 108.19 ± 10.26^ab ng/L, the IL-6 was 571.10 ± 38.62^ab ng/L and the TNF-α is listed as 41.86 ± 4.50^ab ng/L. Moreover, in assay [2], the GPx is reported as 238.56 ± 13.07^a U/mL, the MDA is reported as 3.31 ± 0.10^a nmol/mL, the SOD is recorded as 147.94 ± 5.89^a U/mL and the T-AOC was 2.51 ± 0.16^a U/mL.
